Measured values: article PMC5100903, “Tissue Kallikrein Inhibitors Based on the Sunflower Trypsin Inhibitor Scaffold – A Potential Therapeutic Intervention for Skin Diseases” (PLoS ONE, 2016)
Entries after “also recorded” stand apart in the source; their conditions may differ. Like-named read-outs stand apart in the source and are kept apart here. Positions of bridges follow the written chain, without caps; N, C: chain ends. Residues, ends and D or L forms follow the SMILES beside them.

Assays:
Human Plasma Kallikrein = Human Plasma Kallikrein (Homo sapiens, UniProt P03952); experiment: Human plasma kallikrein inhibition, Boc-VPR-AMC assay; format: biochemical; conditions: read-out: % inhibition of Human Plasma Kallikrein
Protocol: (§1) All assays were performed on 96-well microplates and the change in relative fluorescence unit (RFU) was measured by fluorescence spectrometer (BMG FLUOstar OPTIMA). The excitation/emission wavelength was 360/460 nm for the substrate Boc-VPR-AMC (Bachem AG, Hauptstrasse, Switzerland) and MeOSuc-AAPV-AMC (Bachem AG, Hauptstrasse, Switzerland) and 485/520 nm for BODIPY_FL casein (Invitrogen, Carlsbad, US). Stock solution of Boc-VPR-AMC was prepared by dissolving the solid in dimethyl sulfoxide to 100 mM and 10 mM for MeOSuc-AAPV. For BODIPY_FL casein, it was reconstituted to 1 mg/mL in 1xPBS. […] The % of inhibition was calculated by the following equation: % of Inhibition=(1−(Sample RFU − Min RFU)/(Max RFU − Min RFU)) X100
(§2) Each inhibition curves were done in triplicates with a minimum of five concentration points fitted. Fitting of each curve was done using SigmaPlot with the Four Parameter Logistic Function and the IC50 calculated. […] All tested compounds were reconstituted to stock solution in water.
(§3) The diluent for all the tested compounds, protein and substrate (except KLK7, which was done with 10 mM Tris pH 7.8) was 1xPBS pH 8.0–8.9. The serially diluted ligands were mixed with diluted bovine trypsin (Sigma, Dorset, U.K.) or activated KLK14, or KLK5, or activated KLK8 or matriptase (catalytic domain only, >90% purity by SDS-PAGE, endotoxin <0.1 ng/μg, R&D, Minneapolis, U.S.) or activated KLK7 or human neutrophil elastase (purified from human plasma, >95% purity by SDS-PAGE, Abcam, Cambridge, U.K.) or porcine pancreatic elastase 1 (Sigma, Dorset, U.K.) or human plasma kallikrein or human plasma plasmin (purified from human plasma, ≥95% purity by SDS-PAGE, BioVision, Milpitas, U.S.). 20μL of the ligand-protein mixture was pipetted to a well of a 96-well microplate in triplicates. The reaction was started by addition of 90–100 μL of the diluted substrate solution (contained 0.05% v/v Brij35) and the plate incubated at 25°C but 37°C for KLK7. RFU reading for each well was taken 6 minutes (trypsin) or 15 minutes (KLK14, KLK5, KLK8, matriptase, human neutrophil elastase, porcine pancreatic elastase 1, plasma kallikrein and plasmin) or 20 hours (KLK7) after substrate addition.

[1] = target: T1, Human Neutrophil Elastase (Homo sapiens, UniProt P08246); experiment: Human neutrophil elastase inhibition, MeOSuc-AAPV-AMC assay; format: biochemical; conditions: read-out: % inhibition of Human Neutrophil Elastase
T1 construct: human neutrophil elastase (purified from human plasma); purchased Abcam; host or cells: human plasma (so in the source)
T1 sequence (P08246 30-247 limits assumed): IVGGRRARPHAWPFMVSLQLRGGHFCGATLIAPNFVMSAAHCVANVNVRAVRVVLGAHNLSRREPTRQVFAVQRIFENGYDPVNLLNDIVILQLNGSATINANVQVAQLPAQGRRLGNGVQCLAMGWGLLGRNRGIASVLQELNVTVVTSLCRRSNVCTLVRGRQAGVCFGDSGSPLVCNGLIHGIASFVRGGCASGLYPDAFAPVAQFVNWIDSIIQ
Protocol: as §1, §2, §3

N-tert skin cells = experiment: KLK5-induced IL-8 secretion, ELISA; format: cell-based, human; conditions: KLK5 300 nM, Analogue 6 1515 nM (molar excess 5:1), N-tert cells, 6, 24 and 48 hours
KLK5 [2] = target: T2, KLK5 (Homo sapiens, UniProt Q9Y337); experiment: biochemical
T2 construct: purchased Novoprotein
T2 sequence (Q9Y337 23-293): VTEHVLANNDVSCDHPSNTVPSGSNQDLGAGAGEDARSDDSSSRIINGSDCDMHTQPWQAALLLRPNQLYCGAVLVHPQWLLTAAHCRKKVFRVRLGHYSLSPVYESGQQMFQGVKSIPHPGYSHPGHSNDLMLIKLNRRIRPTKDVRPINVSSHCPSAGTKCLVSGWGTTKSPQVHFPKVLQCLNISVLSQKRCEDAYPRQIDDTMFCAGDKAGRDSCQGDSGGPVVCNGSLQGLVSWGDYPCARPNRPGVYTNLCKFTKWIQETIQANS
Protocol: as §1, §2
The diluent for all the tested compounds, protein and substrate was 1xPBS. Serially diluted ligands were mixed with diluted recombinant KLK5 (10 nM f/c). The ligand-protein mixtures were incubated on ice for one hour and 19.5 μL was pipetted into a well of a 96-well microplate in triplicates. To start the reaction, 100 μL of the diluted (41.6 μM f/c) Boc-VPR-AMC substrate solution (contained 0.05% v/v Brij35) was added. The plate was incubated at 37°C and the RFU reading was taken 15 minutes after.
There are two previously reported Km values for KLK5 and its substrate Boc-VPR-AMC which allowed the IC50 to Ki conversion. Ki values were calculated according to the Cheng-Prusoff equation Ki= IC50/1+[S]/Km for single site competitive binding.

KLK5 [3] = target: T2, KLK5; experiment: KLK5 inhibition, fluorogenic Boc-VPR-AMC assay (S1 Table conditions); format: biochemical; conditions: KLK5 10 nM, Boc-VPR-AMC 41.6 μM, 1xPBS pH 8.0, 15 min on ice preincubation, read at 15 min, 25°C
Protocol: as §1, with “The excitation/emission wavelength was 360/460 nm for the substrate Boc-VPR-AMC (Bachem AG, Hauptstrasse, Switzerland) and MeOSuc-AAPV-AMC (Bachem AG, Hauptstrasse, Switzerland) and 485/520 nm for BODIPY_FL casein (Invitrogen, Carlsbad, US).” left out
as §2
The diluent for all the tested compounds, protein and substrate was 1xPBS pH 8.0. Zinc sulfate and p-aminobenzamidine were purchased from Sigma (Dorset, U.K.). […] The ligand-protein mixtures were incubated on ice for 15 minutes and 20 μL was transferred to a well of a 96-well microplate (ThermoScientific, Waltham, U.S.) in triplicate. […] Change in RFU was measured 15 minutes after substrate addition at 25°C.

[4] = at 10 μM, enzyme 14 nM, Boc-VPR-AMC 42 μM
[5] = at 10 μM, enzyme 10 nM, MeOSuc-AAPV-AMC 41 μM

Chain of Human Plasma Kallikrein (P03952 20-638): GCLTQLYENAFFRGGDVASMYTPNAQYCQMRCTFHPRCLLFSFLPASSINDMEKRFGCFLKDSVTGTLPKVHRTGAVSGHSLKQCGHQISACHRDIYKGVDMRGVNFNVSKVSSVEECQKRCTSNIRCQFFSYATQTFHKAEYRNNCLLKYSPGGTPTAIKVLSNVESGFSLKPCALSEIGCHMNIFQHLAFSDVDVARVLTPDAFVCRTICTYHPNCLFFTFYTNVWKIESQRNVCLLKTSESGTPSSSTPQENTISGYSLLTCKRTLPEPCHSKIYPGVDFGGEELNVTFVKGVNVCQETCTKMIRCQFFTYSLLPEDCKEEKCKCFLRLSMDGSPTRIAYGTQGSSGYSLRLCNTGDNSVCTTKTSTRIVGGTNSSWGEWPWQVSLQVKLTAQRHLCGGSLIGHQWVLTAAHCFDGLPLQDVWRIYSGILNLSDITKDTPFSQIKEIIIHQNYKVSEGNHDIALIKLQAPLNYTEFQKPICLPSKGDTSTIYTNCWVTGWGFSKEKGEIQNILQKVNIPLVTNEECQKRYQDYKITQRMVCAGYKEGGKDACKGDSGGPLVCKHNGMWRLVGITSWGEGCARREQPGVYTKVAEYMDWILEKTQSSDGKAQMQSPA

| Compound | inhibition at 10 µM (Human Plasma Kallikrein) [%] | inhibition at 10 µM [1] [%] | suppression of KLK5-induced IL-8 increase (N-tert skin cells) | inhibition at 10 µM (Human Plasma Kallikrein; [4]) [%] | IC50 (KLK5 [2]; KLK5 10 nM, Boc-VPR-AMC 41.6 μM, 1xPBS, one hour on ice preincubation, read at 15 min, 37°C) [nM] | Ki (KLK5 [2]; calculated from Table 2 IC50 by Cheng-Prusoff equation, read-out: Inhibitory Constant (Ki)) [nM] | IC50 (KLK5 [3]) [nM] | inhibition at 10 µM [1, 5] [%] |
| --- | --- | --- | --- | --- | --- | --- | --- | --- |
| CC[C@H](C)[C@@H]1NC(=O)[C@H](CO)NC(=O)[C@H](CCCCN)NC(=O)[C@H]([C@@H](C)O)NC(=O)[C@@H]2CSSC[C@H](NC(=O)[C@H](Cc3c[nH]cn3)NC(=O)[C@@H]3CCCN3C(=O)[C@@H]3CCCN3C1=O)C(=O)N[C@@H](Cc1c[nH]c3ccccc13)C(=O)N1CCC[C@H]1C(=O)N[C@@H](CC(=O)O)C(=O)NCC(=O)N[C@@H](CCCNC(=N)N)C(=O)N2 [Analogue 2] (cyclo(CTKSIPPHCWPDGR); disulfide 1-9) | 0 | 0 | – | – | – | – | – | – |
| CC[C@H](C)[C@@H]1NC(=O)[C@H](CO)NC(=O)[C@H](CCCNC(=N)N)NC(=O)[C@H]([C@@H](C)O)NC(=O)[C@@H]2CSSC[C@H](NC(=O)[C@H](Cc3c[nH]cn3)NC(=O)[C@@H]3CCCN3C(=O)[C@@H]3CCCN3C1=O)C(=O)N[C@@H](Cc1c[nH]c3ccccc13)C(=O)N1CCC[C@H]1C(=O)N[C@@H](CC(=O)O)C(=O)NCC(=O)N[C@@H](CCCNC(=N)N)C(=O)N2 [Analogue 6] (cyclo(CTRSIPPHCWPDGR); disulfide 1-9) | 15 | 0 | suppress IL-8 increase up to 6 hours (p<0.05) but not 24 hours after stimulation; also recorded: delay the KLK5-induced IL-8 release by up to 6 hours but not for 24 hours | – | – | – | – | – |
| CC[C@H](C)[C@@H]1NC(=O)[C@H](CO)NC(=O)[C@H](CCCCN)NC(=O)[C@H]([C@@H](C)O)NC(=O)[C@@H]2CSSC[C@H](NC(=O)[C@H](Cc3c[nH]cn3)NC(=O)[C@@H]3CCCN3C(=O)[C@@H]3CCCN3C1=O)C(=O)N[C@@H](Cc1ccccc1)C(=O)N1CCC[C@H]1C(=O)N[C@@H](CC(=O)O)C(=O)NCC(=O)N[C@@H](CCCNC(=N)N)C(=O)N2 [Analogue I10H] (cyclo(CFPDGRCTKSIPPH); disulfide 1-7) | – | – | – | 0 | 352 ± 144 | 322 | 760 | 0 |
| CC[C@H](C)[C@@H]1NC(=O)[C@@H]2CCCN2C(=O)[C@@H]2CCCN2C(=O)[C@H]([C@@H](C)CC)NC(=O)[C@H](CO)NC(=O)[C@H](CCCCN)NC(=O)[C@H]([C@@H](C)O)NC(=O)[C@@H]2CSSC[C@H](NC1=O)C(=O)N[C@@H](Cc1ccccc1)C(=O)N1CCC[C@H]1C(=O)N[C@@H](CC(=O)O)C(=O)NCC(=O)N[C@@H](CCCNC(=N)N)C(=O)N2 [Native SFTI, Sunflower Trypsin Inhibitor 1, reference compound] | – | – | – | 0 | – | – | 300 | 0 |
